Data reported in patent publication US9034899B2, “Aryl, heteroaryl, and heterocycle substituted tetrahydroisoquinolines and use thereof” (Albany Molecular Research, Inc., priority 2009, dated 2015).

Legend:
hSERT = hSERT (Homo sapiens (Human), UniProt P31645); assay: SERT radioligand binding assay ([125I]RTI-55, HEK-293 membranes); conditions: (+)-enantiomers; read-out: SERT IC50
Method: (§1) The medium was removed from the flasks and the cells rinsed with HBSS without Ca and without Mg. The cells were then incubated for 5-10 minutes in 10 mM Tris-Cl, pH 7.5, 5 mM EDTA before the cells were lifted with a combination of pipetting and scraping, as needed. The cell suspension was collected into centrifuge bottles and homogenized for 30 seconds with a Polytron homogenizer. The suspension was centrifuged for 30 minutes at 32,000×g, 4° C. The supernatant was decanted and the pellet resuspended and homogenized in 50 mM Tris-Cl, pH 7.5, 1 mM EDTA for 10 seconds. The suspension was then centrifuged again for 30 minutes at 32,000×g, 4° C. The supernatant was decanted and the pellet resuspended in 50 mM Tris-Cl, pH 7.5, 1 mM EDTA and briefly homogenized. A Bradford assay (Bio-rad) was performed and the membrane preparation diluted to 2 mg/ml with 50 mM Tris-Cl, pH 7.5, 1 mM EDTA. Aliquots were prepared, and then frozen and stored at −80° C.
Compounds were dissolved in 100% DMSO at a concentration 100 times the desired highest assay concentration, serially diluted 1:3 in 100% DMSO, and 0.4 μl/well of each solution was dispensed to a Nunc polypropylene, round bottom, 384-well plate. […] The contents of the assay plate were then transferred to a Millipore MultiscreenHTS GF/B filter plate which was pretreated with 0.5% PEI for at least one hour. The plate was vacuum filtered and washed with 7 washes of 100 μl/well 50 mM Tris-Cl, pH 7.5, 120 mM NaCl, 5 mM KCl chilled to 4° C. The filtration and washing were completed in less than 90 seconds. The plates were air-dried overnight, 12 μl/well of MicroScint scintillation fluid added, and the plates counted in a Trilux.
(§2) Each plate was run in triplicate, and the concentration response curve thus generated was fit using the four-parameter dose response equation, Y=Bottom+(Top-Bottom)/(1+10^((LogIC50−X)*HillSlope)) in order to determine the IC50 value for each compound. The radioligand concentration chosen for each assay corresponds to the Kd concentration determined through saturation binding analysis for each assay.

hNET = hNET (Homo sapiens (Human), UniProt P23975); assay: NET radioligand binding assay ([3H]nisoxetine, HEK-293 membranes); conditions: (+)-enantiomers
Method: as §1, with “Recombinant HEK-293 cells expressing either the hSERT, hDAT, or hNET proteins were harvested from T-175 flasks as follows. The medium” for “The medium”
Compounds were dissolved in 100% DMSO at a concentration 100 times the desired highest assay concentration, serially diluted 1:3 in 100% DMSO, and 1.0 μl/well of each solution was dispensed to a Nunc polypropylene, round bottom, 384-well plate. 100% inhibition is defined with 1.0 μl/well of 10 mM desipramine dissolved in DMSO. 50 μl/well of a 2× membrane preparation (0.4 mg/ml in 50 mM Tris-Cl, pH 7.5, 120 mM NaCl, 5 mM KCl) and 50 μl/well of a 2× radioligand solution (4 nM [^3H]nisoxetine in 50 mM Tris-Cl, pH 7.5, 120 mM NaCl, 5 mM KCl) were added to the well and the reaction incubated for 1 hour at room temperature. The contents of the assay plate were then transferred to a Millipore MultiscreenHTS GF/B filter plate which was pretreated with 0.5% PEI for at least one hour. The plate was vacuum filtered and washed with 7 washes of 100 μl/well 50 mM Tris-Cl, pH 7.5, 120 mM NaCl, 5 mM KCl chilled to 4° C. The filtration and washing were completed in less than 90 seconds. The plates were air-dried overnight, 12 μl/well of MicroScint scintillation fluid added, and the plates counted in a Trilux.
as §2, with “The raw data was normalized to percent inhibition using control wells defining 0% (DMSO only) and 100% (selective inhibitor) inhibition which were run on each plate. Each” for “Each”

hDAT = hDAT (Homo sapiens (Human), UniProt Q01959); assay: DAT radioligand binding assay ([125I]RTI-55, HEK-293 membranes); conditions: (+)-enantiomers; read-out: DAT IC50
Method: as §1, with “Recombinant HEK-293 cells expressing either the hSERT, hDAT, or hNET proteins were harvested from T-175 flasks as follows. The medium” for “The medium”
Compounds were dissolved in 100% DMSO at a concentration 100 times the desired highest assay concentration, serially diluted 1:3 in 100% DMSO, and 0.4 μl/well of each solution was dispensed to a Nunc polypropylene, round bottom, 384-well plate. 100% inhibition is defined with 0.4 μl/well of 1 mM GBR-12935 dissolved in DMSO. 20 ul/well of a 2× membrane preparation (12.5 μg/ml in 30 mM sodium phosphate buffer, pH 7.9 at 4° C.) and 20 μl/well of a 2× radioligand solution ([…] [^125I]RTI-55 in 30 mM sodium phosphate buffer, pH 7.9 at 4° C.) were added to the well and the reaction incubated for 1 hour at room temperature. The contents of the assay plate were then transferred to a Millipore MultiscreenHTS GF/B filter plate which was pretreated with 0.5% PEI for at least one hour. The plate was vacuum-filtered and washed with 7 washes of 100 μl/well 50 mM Tris-Cl, pH 7.5, 120 mM NaCl, 5 mM KCl chilled to 4° C. The filtration and washing were completed in less than 90 seconds. The plates were air-dried overnight, 12 μl/well of MicroScint scintillation fluid added, and the plates counted in a Trilux.
as §2, with “The raw data was normalized to percent inhibition using control wells defining 0% (DMSO only) and 100% (selective inhibitor) inhibition which were run on each plate. Each” for “Each”

NET = assay: Occupancy assay, ex vivo binding in brain tissue, NET; conditions: dose 1 mg/kg, time point 3 h
From the text: (§3) The general procedure for brain tissue collection and transporter occupancy assessment is briefly described as follows. Mice were sacrificed by asphyxiation in CO2, rats by decapitation and dogs by IV injection of euthanasia solution. For mice and rats, after the brains were removed from the skull, the forebrain tissue (removal of the brainstem and cerebellum) was used for SERT, NET, and DAT occupancy assessment. In dogs, the striatum was dissected for DAT occupancy and the remaining forebrain tissue (without the striatum, brainstem, and cerebellum) was used for SERT and NET occupancy assessment. The brain tissues were frozen in chilled isopentane and stored at −80° C. until homogenization.
(§4) The brain tissues were thawed and then homogenized using a polytron homogenizer (Kinematica). Sample aliquots were frozen immediately and stored at −80° C. Protein content was measured for each sample using a Coomassie protein assay kit (Pierce).
(§5) On the day of ex vivo binding for occupancy assessment, frozen sample aliquots were thawed and needle homogenized, and 100 μg of the tissue was incubated for SERT, NET, and DAT binding under assay conditions summarized in Table 2. […] The filters were washed twice with ice-cold incubation buffer, punched into a clear plate prior to the addition of 200 ul scintillation fluid per well. Radioligand was measured using a Wallac Microbeta liquid scintillation counter.
(§6) The specific binding was calculated by subtracting the value of the non-specific binding from that of the total binding in each sample. The percent occupancy was calculated as (1−specific binding in drug treated/specific binding in vehicle treated)×100%. […] Nonlinear regression was performed using GraphPad Prism version 3.00 (GraphPad Software, San Diego, Calif.).

DAT = assay: Occupancy assay, ex vivo binding in brain tissue, DAT; conditions: dose 1 mg/kg, time point 3 h
From the text: as §3, §4, §5, §6

Male Swiss Webster mice = assay: Mouse tail suspension assay; assay type: in vivo; conditions: mouse tail suspension study, acute administration
Method: Male Swiss Webster mice were housed 3-4 per cage in rooms maintained at a constant temperature (21-23° C.) and humidity (50±10%) on a 12-hour light/dark cycle. Animals had ad libitum access to water and food throughout studies. On the day of testing, they were brought into the testing room and allowed to acclimate for one hour.
To begin testing, the tail was attached to a piece of tape which ias then attached to a hook on the ceiling of a sound-attenuated chamber. Immobility was automatically recorded using the Med Associates software. Compounds were administered acutely at a fixed pretreatment interval before session.

SERT = assay: Occupancy assay, ex vivo binding in brain tissue, SERT; conditions: dose 1 mg/kg, time point 3 h
From the text: as §3, §4
On the day of ex vivo binding for occupancy assessment, frozen sample aliquots were thawed and needle homogenized, and 100 μg of the tissue was incubated for SERT, NET, and DAT binding under assay conditions summarized in Table 2. After incubation, the reactions were terminated by the addition of ice-cold assay buffer and rapid filtration through a Brandel Cell Harvester using FPXLR-196 filters. The filters were washed twice with ice-cold incubation buffer, punched into a clear plate prior to the addition of 200 ul scintillation fluid per well. Radioligand was measured using a Wallac Microbeta liquid scintillation counter.
The specific binding was calculated by subtracting the value of the non-specific binding from that of the total binding in each sample. The percent occupancy was calculated as (1−specific binding in drug treated/specific binding in vehicle treated)×100%. For estimation of in vivo occupancy EC50 (total plasma concentration of compound producing 50% occupancy), plots of occupancy values versus plasma concentrations were fitted to a one-site binding model using nonlinear regression according to the following equation: % Occupancy=Emax*C/(EC50+C) where Emax is the maximal specific binding, C is the drug concentration, and EC50 is the total plasma concentration required for 50% binding site occupancy. Nonlinear regression was performed using GraphPad Prism version 3.00 (GraphPad Software, San Diego, Calif.).

Chain of hSERT (P31645 whole entry): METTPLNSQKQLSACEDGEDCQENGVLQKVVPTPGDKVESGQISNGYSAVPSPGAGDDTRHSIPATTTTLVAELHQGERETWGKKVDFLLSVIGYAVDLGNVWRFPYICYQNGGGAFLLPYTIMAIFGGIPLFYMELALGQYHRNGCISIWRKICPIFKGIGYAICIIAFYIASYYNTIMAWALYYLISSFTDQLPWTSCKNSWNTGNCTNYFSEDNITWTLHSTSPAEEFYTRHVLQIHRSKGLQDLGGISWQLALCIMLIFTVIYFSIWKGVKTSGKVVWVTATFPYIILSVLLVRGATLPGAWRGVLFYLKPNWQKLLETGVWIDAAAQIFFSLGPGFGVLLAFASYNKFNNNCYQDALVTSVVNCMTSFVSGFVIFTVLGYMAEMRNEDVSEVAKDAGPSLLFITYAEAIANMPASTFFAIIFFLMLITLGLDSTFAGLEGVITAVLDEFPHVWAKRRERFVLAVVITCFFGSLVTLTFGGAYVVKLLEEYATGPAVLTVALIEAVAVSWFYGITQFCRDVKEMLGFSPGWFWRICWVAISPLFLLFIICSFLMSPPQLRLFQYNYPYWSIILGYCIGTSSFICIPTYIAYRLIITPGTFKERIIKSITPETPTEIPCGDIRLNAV
Chain of hDAT (Q01959 whole entry): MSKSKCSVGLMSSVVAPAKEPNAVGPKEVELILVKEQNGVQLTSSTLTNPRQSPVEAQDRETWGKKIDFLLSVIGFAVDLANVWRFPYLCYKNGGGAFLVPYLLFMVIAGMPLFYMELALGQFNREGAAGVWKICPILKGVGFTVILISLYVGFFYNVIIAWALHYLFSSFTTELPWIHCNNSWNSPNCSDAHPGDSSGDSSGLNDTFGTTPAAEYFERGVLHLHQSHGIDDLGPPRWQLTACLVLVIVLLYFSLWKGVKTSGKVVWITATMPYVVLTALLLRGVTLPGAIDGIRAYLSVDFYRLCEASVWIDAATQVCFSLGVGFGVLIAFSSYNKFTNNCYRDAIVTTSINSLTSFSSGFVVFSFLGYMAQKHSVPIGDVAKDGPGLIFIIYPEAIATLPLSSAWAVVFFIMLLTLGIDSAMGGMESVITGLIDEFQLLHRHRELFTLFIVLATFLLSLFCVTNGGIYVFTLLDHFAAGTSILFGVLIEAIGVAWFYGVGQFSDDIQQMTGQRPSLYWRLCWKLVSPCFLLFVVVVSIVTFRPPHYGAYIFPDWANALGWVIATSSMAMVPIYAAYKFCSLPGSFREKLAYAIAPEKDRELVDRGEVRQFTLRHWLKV
Chain of hNET (P23975 whole entry): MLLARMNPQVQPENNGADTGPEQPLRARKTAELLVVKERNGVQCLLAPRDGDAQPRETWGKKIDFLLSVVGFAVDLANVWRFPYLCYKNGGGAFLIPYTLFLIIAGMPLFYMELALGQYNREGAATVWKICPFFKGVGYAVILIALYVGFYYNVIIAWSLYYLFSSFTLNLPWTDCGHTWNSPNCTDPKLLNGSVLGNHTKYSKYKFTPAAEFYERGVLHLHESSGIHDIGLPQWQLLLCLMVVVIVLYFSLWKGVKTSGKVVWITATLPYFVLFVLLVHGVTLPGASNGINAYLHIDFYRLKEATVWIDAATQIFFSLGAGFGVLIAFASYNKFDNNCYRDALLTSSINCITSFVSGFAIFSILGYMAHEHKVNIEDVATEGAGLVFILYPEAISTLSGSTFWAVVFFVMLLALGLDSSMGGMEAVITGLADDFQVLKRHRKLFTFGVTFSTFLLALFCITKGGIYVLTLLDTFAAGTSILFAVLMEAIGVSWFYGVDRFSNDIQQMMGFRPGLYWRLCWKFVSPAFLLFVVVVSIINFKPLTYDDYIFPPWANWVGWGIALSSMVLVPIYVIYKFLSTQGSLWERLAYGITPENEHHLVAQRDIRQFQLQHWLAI

Row | Compound | IC50 (hSERT) [nM] | IC50 (hNET) [nM] | IC50 (hDAT) [nM] | NET Occupancy % (NET) [%] | DAT Occupancy % (DAT) [%] | minimum effective dose (Male Swiss Webster mice) [mg/kg] | SERT Occupancy % (SERT) [%]
1 | O=c1ccc(-c2cc3c(cc2F)C(c2ccc(Cl)c(Cl)c2)CNC3)n[nH]1 (stereo not shown) [Example 22, 6-(4-(3,4-dichlorophenyl)-6-fluoro-1,2,3,4-tetrahydroisoquinolin-7-yl)pyridazin-3(2H)-one] | 39 | 63 | 37 | – | – | – | –
2 | CS(=O)(=O)c1cccc(-c2cc3c(cc2F)C(c2ccc(Cl)c(Cl)c2)CNC3)c1 (stereo not shown) [Example 23, 4-(3,4-dichlorophenyl)-6-fluoro-7-(3-(methylsulfonyl)phenyl)-1,2,3,4-tetrahydroisoquinoline] | 83.6 | 283 | 101 | – | – | – | –
3 | NC(=O)c1ccc(-c2cc3c(cc2F)C(c2ccc(Cl)c(Cl)c2)CNC3)cc1 (stereo not shown) [Example 26, 4-(4-(3,4-dichlorophenyl)-6-fluoro-1,2,3,4-tetrahydroisoquinolin-7-yl)benzamide] | 24.5 | 23.3 | 5.8 | – | – | – | –
4 | NC(=O)c1ccc(-c2cc3c(cc2F)C(c2ccc(Cl)cc2)CNC3)cc1 (stereo not shown) [Example 30, 4-(4-(4-chlorophenyl)-6-fluoro-1,2,3,4-tetrahydroisoquinolin-7-yl)benzamide] | 101 | 215 | 24.5 | – | – | – | –
5 | Clc1ccc(C2CNCc3cc(-c4ccc5ncnn5c4)ccc32)cc1Cl (stereo not shown) [Example 36, 7-([1,2,4]triazolo[1,5-a]pyridin-6-yl)-4-(3,4-dichlorophenyl)-1,2,3,4-tetrahydroisoquinoline] | – | – | – | 11 | 26 | 10 | 75
